From patent US20170334899A1, “AMINO-SUBSTITUTED ISOTHIAZOLES” (Bayer Pharma Aktiengesellschaft, priority 2014, published 2017)
Where “and” joins values, the source holds several entries; their conditions need not be identical. Identical values can stand only once.

Columns and labels:
CDK2/CycE = molecular target: T1, CDK2/CycE (Homo sapiens, UniProt P24941); test: CDK2/CycE kinase assay (TR-FRET); assay type: biochemical; settings: avg, read-out: CDK2 avg (IC50 [mol/l])
T1 construct: GST; purchased ProQinase GmbH (Freiburg, Germany); host or cells: insect cells (Sf9)
Summary of the method: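 GST-tagged human CDK2 and CycE from Sf9 cells, preincubated 15 min with compound, then 25 min at 22° C. with 10 μM ATP and 0.75 μM biotinylated Rb-derived peptide (final). Phospho-substrate read by TR-FRET (anti-pRB pSer807/pSer811, Eu anti-mouse IgG, streptavidin-XL665), 665/620 nm ratio, normalised to no-inhibitor and no-enzyme controls.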

[1] = molecular target: T2, catalytic domain of human Bub1 (amino acids 704-1085) (Homo sapiens, UniProt O43683); test: Bub1 kinase assay (TR-FRET); assay type: biochemical; settings: 10 μM ATP, avg, read-out: Bub1 avg (IC50 [mol/l])
T2 construct: catalytic domain of human Bub1 (amino acids 704-1085); His6 (N); made in house; host or cells: insect cells (Hi5)
Summary of the method: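 Readout is the 665/620 nm TR-FRET ratio from anti-phosphoserine antibody, Eu-labelled anti-mouse IgG and streptavidin-XL665, scaled between no-enzyme and uninhibited controls. Reaction: 1 μM biotinylated peptide, 10 μM ATP, 60 min, 22 °C, after 15 min compound preincubation with His6-Bub1 (704-1085, insect-expressed, ~200 ng/ml).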

T2 sequence (O43683 704-1085): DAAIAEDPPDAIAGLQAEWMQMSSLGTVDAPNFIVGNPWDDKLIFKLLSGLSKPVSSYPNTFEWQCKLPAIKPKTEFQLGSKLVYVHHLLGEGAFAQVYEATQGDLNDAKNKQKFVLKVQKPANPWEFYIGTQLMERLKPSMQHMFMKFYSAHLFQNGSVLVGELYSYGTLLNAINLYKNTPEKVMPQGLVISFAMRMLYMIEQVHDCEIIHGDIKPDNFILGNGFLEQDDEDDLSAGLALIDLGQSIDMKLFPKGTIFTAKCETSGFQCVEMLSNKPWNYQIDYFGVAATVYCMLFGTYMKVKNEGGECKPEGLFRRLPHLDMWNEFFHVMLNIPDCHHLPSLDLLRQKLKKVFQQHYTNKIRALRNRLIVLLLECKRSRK

| IC50 (CDK2/CycE) [µM] | IC50 [1] | SMILES |
| --- | --- | --- |
| ≥ 20 | ≥ 20 µM | Cc1nsc(Nc2cnc(C(F)(F)F)cn2)c1C(=O)Nc1ccc(F)c(OCC2CCN(C(CF)CF)CC2)c1 [Example 312, N-(3-{[1-(1,3-difluoropropan-2-yl)piperidin-4-yl]methoxy}-4-fluorophenyl)-3-methyl-5-{[5-(trifluoromethyl)pyrazin-2-yl]amino}-1,2-thiazole-4-carboxamide] |
| ≥ 20 | ≥ 20 µM | CC(=O)N1CCC(Oc2ccc(NC(=O)c3c(C)nsc3Nc3cnc4ccccc4n3)cn2)CC1 [Example 22, N-{6-[(1-acetylpiperidin-4-yl)oxy]pyridin-3-yl}-3-methyl-5-(quinoxalin-2-ylamino)-1,2-thiazole-4-carboxamide] |
| > 20 | > 20 µM | Cc1nsc(Nc2cnc(C(F)(F)F)cn2)c1C(=O)Nc1ccc(F)c(OC2CCN(CCF)CC2)c1 [Example 266, N-(4-fluoro-3-{[1-(2-fluoroethyl)piperidin-4-yl]oxy}phenyl)-3-methyl-5-{[5-(trifluoromethyl)pyrazin-2-yl]amino}-1,2-thiazole-4-carboxamide] |
| – | > 20 µM | Cc1nsc(Nc2cnc3ccccc3n2)c1C(=O)Nc1cccc(NS(=O)(=O)C2CN(CC(F)F)C2)c1 [Example 286, N-[3-({[1-(2,2-difluoroethyl)azetidin-3-yl]sulfonyl}amino)phenyl]-3-methyl-5-(quinoxalin-2-ylamino)-1,2-thiazole-4-carboxamide] |
| > 20 | > 20 µM | Cc1nsc(Nc2cnc3ccccc3n2)c1C(=O)Nc1cccc(NS(=O)(=O)C2CN(CC(F)(F)F)C2)c1 [Example 285, 3-methyl-5-(quinoxalin-2-ylamino)-N-[3-({[1-(2,2,2-trifluoroethyl)azetidin-3-yl]sulfonyl}amino)phenyl]-1,2-thiazole-4-carboxamide] |
| > 20 | > 20 µM and 19 µM | Cc1nsc(Nc2cnc(C(F)(F)F)cn2)c1C(=O)Nc1ccc(OCCCO)nc1 [Example 279, N-[6-(3-hydroxypropoxy)pyridin-3-yl]-3-methyl-5-{[5-(trifluoromethyl)pyrazin-2-yl]amino}-1,2-thiazole-4-carboxamide] |
| ≥ 20 | ≥ 20 µM | Cc1nsc(Nc2cnc(C(F)(F)F)cn2)c1C(=O)Nc1ccc(F)c(OC2CCN(CC(F)F)C2)c1 (centres unmarked) [Example 314, N-(3-{[1-(2,2-difluoroethyl)pyrrolidin-3-yl]oxy}-4-fluorophenyl)-3-methyl-5-{[5-(trifluoromethyl)pyrazin-2-yl]amino}-1,2-thiazole-4-carboxamide] |
| ≥ 20 | ≥ 20 µM | Cc1nsc(Nc2cnc3ccccc3n2)c1C(=O)Nc1ccc(OC2CCN(CC(F)(F)F)CC2)nc1 [Example 21, 3-Methyl-5-(quinoxalin-2-ylamino)-N-(6-{[1-(2,2,2-trifluoroethyl)piperidin-4-yl]oxy}-pyridin-3-yl)-1,2-thiazole-4-carboxamide] |
| 19 | > 20 µM | Cc1nsc(Nc2cnc3ccccc3n2)c1C(=O)Nc1cccc(NS(=O)(=O)C2CCN(C(=O)OC(C)(C)C)C2)c1 (centres unmarked) [Example 290, tert-butyl 3-{[3-({[3-methyl-5-(quinoxalin-2-ylamino)-1,2-thiazol-4-yl]carbonyl}amino)phenyl]sulfamoyl} pyrrolidine-1-carboxylate] |
| > 20 | > 20 µM | CCN1CCN(C(=O)c2ccc(NC(=O)c3c(C)nsc3Nc3cnc(C(F)(F)F)cn3)cc2)CC1 [Example 261, N-{4-[(4-ethylpiperazin-1-yl)carbonyl]phenyl}-3-methyl-5-{[5-(trifluoromethyl)pyrazin-2-yl]amino}-1,2-thiazole-4-carboxamide] |
| > 20 | > 20 µM | Cc1nsc(Nc2ccc(C#N)cn2)c1C(=O)Nc1cccc(C(=O)NC2CC2)c1 [Example 250, 5-[(5-cyanopyridin-2-yl)amino]-N-[3-(cyclopropylcarbamoyl)phenyl]-3-methyl-1,2-thiazole-4-carboxamide] |
| > 20 | > 20 µM | Cc1nsc(Nc2cnc3ccccc3n2)c1C(=O)Nc1cccc(NS(=O)(=O)C2CCN(C(=O)OC(C)(C)C)CC2)c1 [Example 258, tert-butyl 4-{[3-({[3-methyl-5-(quinoxalin-2-ylamino)-1,2-thiazol-4-yl]carbonyl}amino)phenyl]sulfamoyl} piperidine-1-carboxylate] |
| – | > 20 µM | Cc1nsc(Nc2cnc3ccccc3n2)c1C(=O)Nc1cccc(NS(=O)(=O)C2CCN(CCC(F)(F)F)CC2)c1 [Example 283, 3-methyl-5-(quinoxalin-2-ylamino)-N-[3-({[1-(3,3,3-trifluoropropyl)piperidin-4-yl]sulfonyl}amino)phenyl]-1,2-thiazole-4-carboxamide] |

Further lines, the compound ahead of its results:

| SMILES | IC50 (CDK2/CycE) [µM] | IC50 [1] |
| --- | --- | --- |
| Cc1nsc(Nc2cnc(C(F)(F)F)cn2)c1C(=O)Nc1ccc(F)c(OCCCN(C)CCC(F)(F)F)c1 [Example 303, N-(4-fluoro-3-{3-[methyl(3,3,3-trifluoropropyl)amino]propoxy}phenyl)-3-methyl-5-{[5-(trifluoromethyl)pyrazin-2-yl]amino}-1,2-thiazole-4-carboxamide] | ≥ 20 | ≥ 20 µM |
| Cc1nsc(Nc2cnc(C(F)(F)F)cn2)c1C(=O)Nc1ccc(F)c(OCCCN(C)CC(F)F)c1 [Example 301, N-(3-{3-[(2,2-difluoroethyl)(methyl)amino]propoxy}-4-fluorophenyl)-3-methyl-5-{[5-(trifluoromethyl)pyrazin-2-yl]amino}-1,2-thiazole-4-carboxamide] | > 20 | > 20 µM |
| Cc1nsc(Nc2cnc(C(F)(F)F)cn2)c1C(=O)Nc1ccc(F)c(OCCCNCC(F)(F)F)c1 [Example 306, N-(4-fluoro-3-{3-[(2,2,2-trifluoroethyl)amino]propoxy}phenyl)-3-methyl-5-{[5-(trifluoromethyl)pyrazin-2-yl]amino}-1,2-thiazole-4-carboxamide] | ≥ 20 | ≥ 20 µM |
| Cc1nsc(Nc2cnc(C(F)(F)F)cn2)c1C(=O)Nc1ccc(OCCCNCCC(F)(F)F)nc1 [Example 294, 3-methyl-5-{[5-(trifluoromethyl)pyrazin-2-yl]amino}-N-(6-{3-[(3,3,3-trifluoropropyl)amino]propoxy}pyridin-3-yl)-1,2-thiazole-4-carboxamide] | > 20 | > 20 µM |
| Cc1nsc(Nc2cnc(C(F)(F)F)cn2)c1C(=O)Nc1ccc(F)c(OCC2CCN(C(CF)CF)C2)c1 (centres unmarked) [Example 320, N-(3-{[1-(1,3-difluoropropan-2-yl)pyrrolidin-3-yl]methoxy}-4-fluorophenyl)-3-methyl-5-{[5-(trifluoromethyl)pyrazin-2-yl]amino}-1,2-thiazole-4-carboxamide] | ≥ 20 | ≥ 20 µM |
| Cc1nsc(Nc2cnc(C(F)(F)F)cn2)c1C(=O)Nc1ccc(C(=O)NC2CN(CC(F)(F)F)C2)cc1 [Example 270, 3-methyl-N-(4-{[1-(2,2,2-trifluoroethyl)azetidin-3-yl]carbamoyl}phenyl)-5-{[5-(trifluoromethyl)pyrazin-2-yl]amino}-1,2-thiazole-4-carboxamide] | > 20 | > 20 µM |
| Cc1nsc(Nc2cnc(C(F)(F)F)cn2)c1C(=O)Nc1ccc(OCCCNCC(F)(F)F)nc1 [Example 292, 3-methyl-N-(6-{3-[(2,2,2-trifluoroethyl)amino]propoxy}pyridin-3-yl)-5-{[5-(trifluoromethyl)pyrazin-2-yl]amino}-1,2-thiazole-4-carboxamide] | > 20 | > 20 µM |
| Cc1nsc(Nc2cnc3ccccc3n2)c1C(=O)Nc1cccc(C(=O)NC(C)C)c1 [Example 253, N-[3-(isopropylcarbamoyl)phenyl]-3-methyl-5-(quinoxalin-2-ylamino)-1,2-thiazole-4-carboxamide] | > 20 | 0.32 µM |
| Cc1nsc(Nc2ccc(C#N)cn2)c1C(=O)Nc1cccc(C(=O)NC(C)C)c1 [Example 255, 5-[(5-cyanopyridin-2-yl)amino]-N-[3-(isopropylcarbamoyl)phenyl]-3-methyl-1,2-thiazole-4-carboxamide] | > 20 | > 20 µM |
| Cc1nsc(Nc2cnc(C(F)(F)F)cn2)c1C(=O)Nc1ccc(F)c(OCCCN(C)CC(F)(F)F)c1 [Example 302, N-(4-fluoro-3-{3-[methyl(2,2,2-trifluoroethyl)amino]propoxy}phenyl)-3-methyl-5-{[5-(trifluoromethyl)pyrazin-2-yl]amino}-1,2-thiazole-4-carboxamide] | > 20 | > 20 µM |
| Cc1nsc(Nc2cncc(C(F)(F)F)n2)c1C(=O)Nc1ccc(F)c(OC2CCN(CC(F)F)CC2)c1 [Example 268, N-(3-{[1-(2,2-difluoroethyl)piperidin-4-yl]oxy}-4-fluorophenyl)-3-methyl-5-{[6-(trifluoromethyl)pyrazin-2-yl]amino}-1,2-thiazole-4-carboxamide] | > 20 | 19 µM |
| Cc1nsc(Nc2cnc3ccccc3n2)c1C(=O)Nc1cccc(NS(=O)(=O)C2CCN(CC(F)(F)F)C2)c1 (centres unmarked) [Example 289, 3-methyl-5-(quinoxalin-2-ylamino)-N-[3-({[1-(2,2,2-trifluoroethyl)pyrrolidin-3-yl]sulfonyl}amino)phenyl]-1,2-thiazole-4-carboxamide] | – | > 20 µM |
